The text below walks through data of patent US20230263751A1, “Compositions and Methods of Use of beta-hydroxy-beta-methylbutyrate (HMB) and Chemotherapy Agents” (Metabolic Technologies, LLC, priority 2020, published 2023).

For data set [1], the system named is EAC cells. Description: Tumor growth inhibition and morphological evaluation of mice with EAC. It is filed as in vivo, Balb/c mice (Mus musculus). Conditions: 9 days treatment. As to the method: Female (18 to 23 g weight, 60 days) Balb/c mice (Mus musculus) obtained from controlled reproduction carried out in the sectoral bioterium of the Federal University of Santa Catarina (Brazil), were kept in plastic cages under controlled environmental conditions (12 h light-dark cycle, 25±2° C., relative humidity 60%), receiving commercial feed and water ad libitum.
The moment before the tumor was inoculated, the abdominal circumference was measured. The treatments were administered intraperitoneally for 9 consecutive days. Twenty-four hours after the last treatment, all mice were weighed and their abdominal circumferences measured again. The inhibition (%) of tumour growth was calculated as follow: [(average in waist circumference of the treated group×100)/average in waist circumference of the control group]−100.
(§1) In addition, after euthanasia, all ascitic fluid was collected to measure volume and weight. Finally, Balb/c mice (n=12) were chosen at random and kept alive to assess the effects of HMB, Doxo and Doxo+HMB on survival time according to Kaplan and Meier (1958); survival assessments were discontinued after 30 days.

The test system of data set [2] is EAC cells. Description: Survival assessment of mice with EAC (Kaplan and Meier). Type of data set: in vivo, Balb/c mice (Mus musculus). Conditions: for Mean survival time: mice with EAC, n=12, observation discontinued after 30 days, Control 16 days.
Description: as §1

The test system of a further data set is p53. Description: Western blotting of p53 in EAC cells. It is filed as in vivo, Balb/c mice (Mus musculus). Particulars: p53/actin. As to the method: (§2) Apoptotic markers were evaluated by Western blotting. EAC cells were washed with PBS and lysed in RIPA buffer supplemented with 1% protease and 3% phosphatase inhibitors. The proteins were further denatured in Laemmli buffer and equivalent amounts were subjected to SDS-PAGE electrophoresis, followed by electroblotting on PVDF membranes. The membranes were blocked and then incubated with the primary monoclonal antibodies: p53 (Santa Cruz Biotechnology, DO-1; sc-126), Bax (Santa Cruz Biotechnology, B-9; sc-7480) and BcL-xl (Santa Cruz Biotechnology, H-5; sc-8392), and subsequently incubated with peroxidase conjugated secondary antibodies (Dako and Chemicon). Immunodetection was performed using a chemiluminescence determination kit, and β-actin was used as a loading control. Images were obtained with the ChemiDoc MP (Bio Rad) system.
(In general: A western blot detects proteins with antibodies after separation by electrophoresis.)

The subject of another data set is Bax/Bcl-xl. Description: Western blotting of Bax and Bcl-xl in EAC cells (Bax/Bcl-xl ratio). Type of data set: in vivo, Balb/c mice (Mus musculus). The protocol:
as §2, with “EAC cells were washed with PBS and lysed in RIPA buffer supplemented with 1% protease and 3% phosphatase inhibitors.” left out, “control.” for “control. Images were obtained with the ChemiDoc MP (Bio Rad) system.”

A short description of data set [3]: Cachexia assessment (food intake, weight loss, muscle and fat mass) of mice with EAC. Type of data set: in vivo, Balb/c mice (Mus musculus). Particulars: 9 days; for Average daily food intake: Control 2.17±0.69, Normal 3.30±0.60; for Brown adipose tissue mass / Dry weight soleus muscle / Mesenteric fat mass / Subcutaneous fat mass / Wet weight gastrocnemius muscle / Wet weight soleus muscle: mean ± SD, n=6. From the text: To determine average daily food intake, the weight of the feed consumed was divided by the number of animals in each cage. To evaluate the percentage of weight loss, the “initial weight” (before inoculation of the EAC), “final weight” (after 9 days of treatment) and “carcass weight” (final weight−weight of ascitic liquid) were considered according to standardized equation [27].
The soleus and gastrocnemius muscles were quickly removed and weighed on an analytical balance (wet mass). Soleus samples were used to determine the dry weight after 3 days at 60° C., and the gastrocnemius was kept at −80° C. for the determination of cytokines. The wet mass of the gastrocnemius and soleus muscle (mg) was normalized by the length of the tibia (mm) of the mice. Subcutaneous fat deposits, mesentery and brown adipose tissue were also removed and immediately weighed.

The test system of another data set is IL-1β. As to the kind of experiment: IL-1β in gastrocnemius muscle by ELISA. Type of data set: in vivo, Balb/c mice (Mus musculus). As to the method: (§3) For the determination of cytokines, the gastrocnemius muscle was homogenized in a RIPA buffer supplemented with 1% protease and 3% phosphatase inhibitors, in the proportion 1 mg tissue:10 μl buffer, followed by centrifugation of the homogenate at 12,000 g and 4° C., for 10 minutes. An aliquot of the supernatant was used to determine the cytokines IL-1β and IL-6 by ELISA immunoassay using DuoSet® Kit (R&D System, USA), according to the manufacturer recommendations.
A general note: An ELISA detects its analyte on a solid surface through an enzyme-linked reagent.

The test system of the next data set is IL-6. As to the kind of experiment: IL-6 in gastrocnemius muscle by ELISA. It is filed as in vivo, Balb/c mice (Mus musculus). Particulars: in relation to the Control group. The protocol: as §3
The next data set deals with C-reactive protein. As to the kind of experiment: Serum C-reactive protein (Ultra Turbiquest Plus CRP kit). It is filed as in vivo, Balb/c mice (Mus musculus). Particulars: for Serum C-reactive protein levels: mice with EAC, 9 days, Control 1.63, Normal 0.07. As to the method:
The determination of C-reactive protein (CRP) in serum was performed by the Ultra Turbiquest Plus® CRP kit, according to the manufacturer instructions.

Data set [4] concerns EAC cells. As to the kind of experiment: Assessment of death type in harvested tumor cells (propidium iodide/acridine orange).
Description: The mice were divided into 5 groups (n=6): Normal (healthy animals), Control (saline), Doxo (1 mg/kg/day), HMB (617.3 mg calcium HMB/kg/day) and Doxo+HMB (1 mg/kg/day and 617.3 mg/kg/day, respectively). The animals belonging to the Control, Doxo, HMB and Doxo+HMB groups were inoculated with EAC cells (200 μL, 5×10^6 cells) by intraperitoneal injection and treatment of animals was started after 96 hours. The dose of HMB was defined based on the recommendation for adult men of 70 kg, that is, 3 g/day (supplementary form) [21].
Harvested tumor cells (5×10^6) were stained with 1 μL of a solution (1:1) of propidium iodide (100 μg/mL) and acridine orange (100 μg/mL). The samples were read by fluorescence microscopy on the green (excitation at 460 nm and emission at 520 nm) and red (excitation at 492 nm at emission at 620 nm) filters, and the results were expressed as percentage of viable (green), apoptotic (orange) and necrotic (red) cells [24].
The next data set deals with COX-2. As to the kind of experiment: COX-2 expression in EAC cells by Western blotting. Conditions: COX-2/actin in EAC cells. Type of data set: in vivo, Balb/c mice (Mus musculus). As to the method: as §2
The COX-2 expression in EAC cells was assessed by Western blotting as described in item 2.2.3. Antibodies to COX-2 were purchased from Cell Signaling (#4842)

Data set [5] concerns tumors injected into the peritoneal cavity. Particulars: rats; cited from earlier work.
For data set [6] the following is noted: serum HMB levels; cited from earlier work.
Where [7] appears, read: EAC cells harvested after 9 days treatment.

Take `COc1cccc2c1C(=O)c1c(O)c3c(c(O)c1C2=O)C[C@@](O)(C(=O)CO)C[C@@H]3O[C@H]1C[C@H](N)[C@H](O)[C@H](C)O1` [Doxo, doxorubicin]: the “Inhibition of tumor growth” value in the data set with EAC cells [1] (from waist circumference, in relation to the Control group, n=6) is reported as 42%. In the data set with EAC cells [1] (mice with EAC), the “Reduction of body weight variation in relation to the Control group” value amounted to 39% and the “Reduction of volume of ascitic liquid in relation to the Control group” value came out at 54%. This compound also displayed a Mean survival time in the data set on EAC cells [2] of 26 days. In addition, in the data set with EAC cells [2] (n=12, 30 days), the “Surviving animals at the end of the observation period” value was found to be 3 animals. Also, the “Increase of p53 expression in relation to the Control group” value in the data set with p53 is 20%. Besides, the “Increase of Bax/Bcl-xL ratio in relation to the Control” value with Bax/Bcl-xl is 38%. Besides, in [3], the “Average daily food intake” value was 2.22 ± 0.63 g/day, the “Brown adipose tissue mass” value amounted to 3.6 ± 1.7 mg/cm mouse length, the “Dry weight soleus muscle” value is given as 0.1 ± 0.01 mg/mm tibia length and the Mesenteric fat mass is reported as 2.5 ± 0.6 mg/cm mouse length. Also, in data set [3], the Subcutaneous fat mass is 2.2 ± 0.3 mg/cm mouse length, the “Wet weight gastrocnemius muscle” value came to 11.7 ± 0.2 mg/mm tibia length and the “Wet weight soleus muscle” value was determined as 0.7 ± 0.15 mg/mm tibia length. For the same compound, the “Attenuation of weight loss in relation to controls” value in data set [3] (EAC caused 11% body weight loss) is listed as 54%. The “Reduction of IL-1β content in relation to controls” value with IL-1β is on record as 6%. In the data set with IL-6, the “Reduction of IL-6” value was 43%. In addition, the “Serum C-reactive protein levels” value with C-reactive protein came to 2.39 mg/L. Besides, in the data set with C-reactive protein (serum), the “Increase in C-reactive protein levels compared to controls” value was 47%. Further, in the data set on EAC cells [4] (setting [7]), the Apoptotic cells was determined as 4%, the “Necrosis (necrotic cells)” value turned out to be 36% and the Viable cells turned out to be 60%. The “Percentage of death induced by each treatment” value in the data set on EAC cells [4] (as restated in the discussion) was found to be 36%.

With `CC(C)(O)CC(=O)O` [HMB, β-hydroxy-β-methylbutyrate], the Mean survival time in the data set on EAC cells [2] stood at 13.5 days. In addition, in the data set on p53, the “Increase of p53 expression in relation to the Control group” value was 10%. For the same compound, in [3], the “Average daily food intake” value amounted to 2.81 ± 1.05 g/day, the “Brown adipose tissue mass” value is reported as 3.2 ± 0.3 mg/cm mouse length, the “Dry weight soleus muscle” value was 0.1 ± 0.04 mg/mm tibia length and the Mesenteric fat mass is reported as 3.0 ± 0.8 mg/cm mouse length. For the same compound, in data set [3], the Subcutaneous fat mass is reported as 1.9 ± 1.1 mg/cm mouse length, the “Wet weight gastrocnemius muscle” value worked out at 8.9 ± 0.5 mg/mm tibia length and the “Wet weight soleus muscle” value was found to be 0.8 ± 0.2 mg/mm tibia length. Besides, the “Reduction of COX-2 expression compared to controls” value in the data set on COX-2 was found to be 4%. In addition, the “Reduction of IL-6” value with IL-6 was found to be 64%. For the same compound, the “Serum C-reactive protein levels” value in the data set on C-reactive protein was found to be 0.31 mg/L. Besides, the Improved survival in data set [5] is 42%.

On to `CC(C)(O)CC(=O)O` [free acid form of HMB, β-hydroxy-β-methylbutyric acid], for which the “Absorption compared with CaHMB” value in data set [6] was “more rapidly absorbed than CaHMB”.
